# Laboratory results taken from patent US20050182252A1, “Novel 2'-C-methyl nucleoside derivatives” (priority 2004, published 2005).
# “Also recorded” adds a separate entry of the source. Where a name gives a salt, the structure may show the parent alone.
# Key:
# [1] = tested on: HCV; experiment: HCV-infected human liver slice assay (HCV RNA in culture medium); assay type: cell-based; conditions: for Log10 decrease in viral RNA from control at 48-72 h: HCV RNA in culture medium of HCV-infected human liver slices; for HCV RNA levels in the liver slice culture media versus control, untreated slices: in words, treatment for 72 h
# Experimental: Inhibition of HCV replication in human liver tissue was evaluated using the following assay.
# Liver from a brain-dead HCV antibody-positive human patient was perfused with ice-cold Viaspan (Dupont Pharmaceutical) preservation solution and received on ice in Viaspan.
# Precision-cut liver slices of ˜200-250 μm thickness and […] diameter were prepared and cultured in Waymouth's cell culture medium (Gibco, Inc.) that was supplemented with 10% fetal bovine serum and 10 mL/L Fungi-Bact at 37° C., and gassed with carbogen (95% O2, 5% CO2) at 0.75 liters/min. Tissue slices were maintained in culture for 72 h. Cell culture medium containing test compound in solution was changed on a daily basis.
# At appropriate times of liver slice incubation, liver slices and medium were collected for analysis of HCV RNA (tissue and medium) and nucleotide levels (NTP). All collected media and tissue slices were maintained in liquid N2 until analysis.
# Medium and tissue samples were analyzed for HCV RNA levels according to published procedures (Bonacini et. al., 1999) which utilize an automated, multicycle, polymerase chain reaction (PCR)-based technique. This assay has a lower limit of detection for HCV RNA of 100 viral copies/ml.
# [2] = parameters: species or system C57BL/6 mice; conditions: in vivo; for Liver NTP AUC: mouse
# Experimental: The liver specificity of the compound 19 prodrug was compared relative to the parent nucleoside, 2′-C-methylguanosine, and for compound 21.1 prodrug relative to its parent nucleoside, 2′-C-methyladenosine, by measuring the generation of NTP in the liver compared to nucleoside in the plasma.
# Compound 19 or 2′-C-methylguanosine were administered intraperitoneally to C57BL/6 mice at a dose of 30 mg/kg based on nucleoside equivalents (30 mg/kg 2′-C-methylguanosine and 53.27 mg/kg compound 19). Compound 21.1 or 2′-C-methyladenosine were administered intravenously to C57BL/6 mice at dose of about 5.5 mg/kg nucleoside equivalents (5.5 mg/kg 2′-C-methyladenosine and 10 mg/kg compound 21.1). Plasma concentrations of 2′-C-methylguanosine, compound 19, 2′-C-methyladenosine, and compound 21.1 were determined by HPLC-UV and the liver concentrations of the 5′-triphosphate of 2′-C-methylguanosine and 2′-C-methyladenosine were measured by LC-MS using the standard ion-pairing chromatography method for triphosphate as described in Example E. Conventional SAX HPLC-UV could not differentiate between endogenous GTP and 2′-C-methylguanosine triphosphate. Since an authentic standard of 2′-C-methylguanosine triphosphate was not available, the liver concentrations of the nucleotide were approximated as described in Example E.
compound,measurement,setting,value
"C[C@@]1(O)[C@H](O)[C@@H](CO[P@]2(=O)OCC[C@H](c3cccc(Cl)c3)O2)O[C@H]1n1cnc2c(=O)[nH]c(N)nc21 (relative stereo) [Compound 19, cis-5′-O-[4-(3-Chlorophenyl)-2-oxo-1,3,2-dioxaphosphorinan-2-yl]-2′-C-methyl-guanosine]",Log10 decrease in viral RNA from control at 48-72 h,[1]; 0.25 μM compound,1.27 Log10
same,Log10 decrease in viral RNA from control at 48-72 h,[1]; 1 μM compound,1.61 Log10
same,Log10 decrease in viral RNA from control at 48-72 h,[1]; 2.5 μM compound,1.70 Log10
same,Log10 decrease in viral RNA from control at 48-72 h,[1]; 25 μM compound,1.72 Log10
same,"HCV RNA levels in the liver slice culture media versus control, untreated slices",[1],decreased; also recorded: more effective than treatment with the nucleoside
same,Liver Targeting Index (Liver/Plasma),"[2]; C57BL/6, mouse, ip, 30 mg/kg",26.2
same,Prodrug Improvement (Fold),"[2]; C57BL/6, mouse, ip, 30 mg/kg",30 Fold
"C[C@@]1(O)[C@H](O)[C@@H](CO)O[C@H]1n1cnc2c(N)ncnc21 [2′-C-methyladenosine, reference compound]",Plasma Nucleoside AUC,"[2]; C57BL/6, mouse, iv, 5.5 mg/kg",26.8 µM·h
same,Liver NTP AUC,"[2]; iv, 5.5 mg/kg",119 nmol·h/g
"C[C@@]1(O)[C@H](O)[C@@H](CO)O[C@H]1n1cnc2c(=O)[nH]c(N)nc21 [2′-C-methylguanosine, reference compound]",Log10 decrease in viral RNA from control at 48-72 h,[1]; 0.25 μM compound,0.51 Log10
same,Log10 decrease in viral RNA from control at 48-72 h,[1]; 2.5 μM compound,1.74 Log10
same,Log10 decrease in viral RNA from control at 48-72 h,[1]; 25 μM compound,1.48 Log10
same,"HCV RNA levels in the liver slice culture media versus control, untreated slices",[1],decreased
same,Liver Targeting Index (Liver/Plasma),"[2]; C57BL/6, mouse, ip, 30 mg/kg",0.87
"C[C@@]1(O)[C@H](O)[C@@H](COP2(=O)OCC[C@@H](c3cccc(Cl)c3)O2)O[C@H]1n1cnc2c(N)ncnc21 (stereo partly drawn) [Compound 21.1, cis-5′-O-[4-(S)-(3-chlorophenyl)-2-oxo-1,3,2-dioxaphosphorinan-2-yl]-2′-C-beta-methyl-adenosine trifluoroacetic acid salt]",Liver NTP AUC,"[2]; iv, 5.5 mg/kg",502 nmol·h/g
"C[C@@]1(O)[C@H](O)[C@@H](COP2(=O)OCC[C@@H](c3cc(F)ccc3F)O2)O[C@H]1n1cnc2c(N)ncnc21 (stereo partly drawn) [Compound 21.3, cis-5′-O-[4-(2,5difluorophenyl)-2-oxo-1,3,2-dioxaphosphorinan-2-yl]-2′-C-beta-methyl-adenosine]",melting point,,75 to 78 °C
"C[C@@]1(O)[C@H](O)[C@@H](COP2(=O)OCC[C@@H](c3cc(F)cc(F)c3)O2)O[C@H]1n1cnc2c(N)ncnc21 (stereo partly drawn) [Compound 21.4, cis-5′-O-[4-(3,5-difluorophenyl)-2-oxo-1,3,2-dioxaphosphorinan-2-yl]-2′-C-beta-methyl-adenosine]",melting point,,120 to 123 °C
"C[C@@]1(O)[C@H](O)[C@@H](COP2(=O)OCC[C@@H](c3cccc(Br)c3)O2)O[C@H]1n1cnc2c(N)ncnc21 (stereo partly drawn) [Compound 21.6, cis-5′-O-[4-(3-bromophenyl)-2-oxo-1,3,2-dioxaphosphorinan-2-yl]-2′-C-beta-methyl adenosine]",melting point,,108 to 110 °C
"C[C@@]1(O)[C@H](O)[C@@H](COP2(=O)OCC[C@@H](c3cccnc3)O2)O[C@H]1n1cnc2c(N)ncnc21 (stereo partly drawn) [Compound 21.9, cis-5′-O-[4-(pyridine-3-yl)-2-oxo-1,3,2-dioxaphosphorinan-2-yl]-2′-C-beta-methyl-adenosine]",melting point,,137 to 140 °C
"CC(=O)O[C@@H]1[C@@H](COP2(=O)OCC[C@H](c3ccncc3)O2)O[C@@H](n2ccc3c(N)ncnc32)[C@]1(C)O (stereo partly drawn) [Compound 22.1, 4-amino-7-(3′-acetyl-cis-5′-O-[4-(S)-(pyridin-4-yl)-2-oxo-1,3,2-dioxaphosphorinan-2-yl]-2′-C-methyl-beta-D-ribofuranosyl)-7H-pyrrolo[2,3-d]pyrimidine]",melting point,,182 to 185 °C
"CC(=O)O[C@@H]1[C@@H](COP2(=O)OCC[C@H](c3cccc(Cl)c3)O2)O[C@@H](n2ccc3c(N)ncnc32)[C@]1(C)O (stereo partly drawn) [Compound 22.2, 4-amino-7-(3′-acetyl-cis-5′-O-[4-(S)-(3-chlorophenyl)-2-oxo-1,3,2-dioxaphosphorinan-2-yl]-2′-C-methyl-beta-D-ribofuranosyl)-7H-pyrrolo[2,3-d]pyrimidine]",melting point,,90 to 93 °C
"C[C@@]12OC(=O)O[C@@H]1[C@@H](COP1(=O)OCC[C@H](c3cccc(Cl)c3)O1)O[C@H]2n1ccc2c(N)ncnc21 (stereo partly drawn) [Compound 23.1, 4-amino-7-(2′,3′-carbonyl-cis-5′-O-[4-(S)-(3-chlorophenyl)-2-oxo-4,3,2-dioxaphosphorinan-2-yl]-2′-C-methyl-beta-D-ribofuranosyl)-7H-pyrrolo[2,3-d]pyrimidine]",melting point,,127 to 130 °C
"C[C@@]12OC(=O)O[C@@H]1[C@@H](COP1(=O)OCC[C@H](c3ccncc3)O1)O[C@H]2n1ccc2c(N)ncnc21 (stereo partly drawn) [Compound 23.2, 4-amino-7-(2′,3′-carbonyl-cis-5′-O-[4-(S)-(pyridin-4-yl)-2-oxo-1,3,2-dioxaphosphorinan-2-yl]-2′-C-methyl-beta-D-ribofuranosyl)-7H-pyrrolo[2,3-d]pyrimidine]",melting point,,192 to 195 °C
"C[C@@]1(O)[C@H](O)[C@@H](CO)O[C@H]1n1ccc2c(N=[N+]=[N-])ncnc21 [Compound 25.1, 4-azido-7-(2′-C-methyl-beta-D-ribofuranosyl)-7H-pyrrolo[2,3-d]pyrimidine]",melting point,,179 to 180 °C
